Data on 13 molecules can be found in patent publication US20250206732A1, “COMPOUNDS AND METHODS FOR THE TARGETED DEGRADATION OF KRAS” (Arvinas Operations, Inc., priority 2022, published 2025).

This test concerns the target T1, AsPC-1 HiBiT-KRASG12D (Homo sapiens, UniProt P01116, G12D).
T1 construct: insert the HiBiT tag onto the N-terminus of one or more of the endogenous KRAS alleles; endogenous in cells; host or cells: AsPC-1 (ATCC CRL-1682), CRISPR-Cas9 knock-in clone, one tagged allele
Description: HiBiT degradation assay (G12D), AsPC-1 HiBiT-KRASG12D cells. The test is classed as cell-based. The following applies: 24 hours treatment; for Dmax: ASPC1, AsPC-1 HiBiT-KRASG12D cells, maximum degradation observed; for DC50: AsPC-1 HiBiT-KRASG12D cells, HiBiT luminescence. The gist of the method: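 In this degradation format, an engineered AsPC-1 clone with HiBiT fused to the KRAS N-terminus is exposed to compounds for 24 hours, after which remaining tagged protein is quantified by lytic HiBiT luminescence.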
(HiBiT is a short tag that completes a luciferase, so light tracks the accessible tagged protein.)

T1 sequence (P01116 1-188 isoform P01116-2 G12D): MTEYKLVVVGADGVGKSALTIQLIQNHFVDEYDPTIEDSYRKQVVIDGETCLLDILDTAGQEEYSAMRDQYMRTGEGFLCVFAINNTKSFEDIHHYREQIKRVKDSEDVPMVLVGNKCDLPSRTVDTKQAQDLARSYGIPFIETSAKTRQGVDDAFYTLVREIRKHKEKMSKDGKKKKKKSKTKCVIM

What is called Dmax is the largest share of the target that was removed. In general, DC50 refers to the midpoint of the concentration-degradation curve. A high value points to degradation only at high concentration. With `C#Cc1c(F)ccc2cc(O)cc(-c3ncc4c(N5CC6CCC(C5)N6)nc(OCCN5CCC(OC6CN(c7cc([C@@H](C(=O)N8C[C@H](O)C[C@H]8C(=O)N[C@@H](C)c8ccc(-c9scnc9C)cc8)C(C)C)on7)C6)CC5)nc4c3F)c12` [Compound 158], the greatest degradation seen (Dmax) lay in the range of 80 to 100% and the DC50 was < 600 nM.

On to `C#Cc1c(F)ccc2cc(O)cc(-c3ncc4c(N5CC6CCC(C5)N6)nc(OCCN5CCC6(CC5)CC(Oc5cc([C@@H](C(=O)N7C[C@H](O)C[C@H]7C(=O)N[C@@H](C)c7ccc(-c8scnc8C)cc7)C(C)C)on5)C6)nc4c3F)c12` [Compound 159, (2S,4R)-1-[(2S)-2-{3-[(7-{2-[(4-{3,8-diazabicyclo[3.2.1]octan-3-yl}-7-(8-ethynyl-7-fluoro-3-hydroxynaphthalen-1-yl)-8-fluoropyrido[4,3-d]pyrimidin-2-yl)oxy]ethyl}-7-azaspiro[3.5]nonan-2-yl)oxy]-1,2-oxazol-5-yl}-3-methylbutanoyl]-4-hydroxy-N-[(1S)-1-[4-(4-methyl-1,3-thiazol-5-yl)phenyl]ethyl]pyrrolidine-2-carboxamide], for which the Dmax lay in the range of 60 to 80% and the DC50 was < 600 nM.

Consider `C#Cc1c(F)ccc2cc(O)cc(-c3ncc4c(N5CC6CCC(C5)N6)nc(OCCN5CCC(CC6CN(c7cc([C@@H](C(=O)N8C[C@H](O)C[C@H]8C(=O)N[C@@H](C)c8ccc(-c9ccnn9C)cc8)C(C)C)on7)C6)CC5)nc4c3F)c12` [Compound 160, (2S,4R)-1-[(2S)-2-(3-{3-[(1-{2-[(4-{3,8-diazabicyclo[3.2.1]octan-3-yl}-7-(8-ethynyl-7-fluoro-3-hydroxynaphthalen-1-yl)-8-fluoropyrido[4,3-d]pyrimidin-2-yl)oxy]ethyl}piperidin-4-yl)methyl]azetidin-1-yl}-1,2-oxazol-5-yl)-3-methylbutanoyl]-4-hydroxy-N-[(1S)-1-[4-(1-methyl-1H-pyrazol-5-yl)phenyl]ethyl]pyrrolidine-2-carboxamide], for which the Dmax is 20 to 60% and the DC50 is > 3000 nM.

As for `C#Cc1c(F)ccc2cc(O)cc(-c3ncc4c(N5CC6CCC(C5)N6)nc(OCCN5CCC6(CC5)CC(Oc5cc([C@H](C(=O)N7C[C@H](O)C[C@H]7C(=O)N[C@@H](C)c7ccc(-c8scnc8C)cc7)C(C)C)on5)C6)nc4c3F)c12` [Compound 161, (2S,4R)-1-[(2R)-2-{3-[(7-{2-[(4-{3,8-diazabicyclo[3.2.1]octan-3-yl}-7-(8-ethynyl-7-fluoro-3-hydroxynaphthalen-1-yl)-8-fluoropyrido[4,3-d]pyrimidin-2-yl)oxy]ethyl}-7-azaspiro[3.5]nonan-2-yl)oxy]-1,2-oxazol-5-yl}-3-methylbutanoyl]-4-hydroxy-N-[(1S)-1-[4-(4-methyl-1,3-thiazol-5-yl)phenyl]ethyl]pyrrolidine-2-carboxamide], the maximal degradation (Dmax) fell in the range of 80 to 100% and the half-maximal degradation concentration (DC50) is < 600 nM.

`CCc1cccc2cc(O)cc(-c3ncc4c(N5CC6CCC(C5)N6)nc(OC[C@H]5CN(CC6CN(c7cc([C@H](C(=O)N8C[C@H](O)C[C@H]8C(=O)N[C@@H](C)c8ccc(-c9scnc9C)cc8)C(C)C)on7)C6)CCN5C)nc4c3F)c12` [Compound 162, (2S,4R)-1-[(2R)-2-[3-(3-{[(3R)-3-{[(4-{3,8-diazabicyclo[3.2.1]octan-3-yl}-7-(8-ethyl-3-hydroxynaphthalen-1-yl)-8-fluoropyrido[4,3-d]pyrimidin-2-yl)oxy]methyl}-4-methylpiperazin-1-yl]methyl}azetidin-1-yl)-1,2-oxazol-5-yl]-3-methylbutanoyl]-4-hydroxy-N-[(1S)-1-[4-(4-methyl-1,3-thiazol-5-yl)phenyl]ethyl]pyrrolidine-2-carboxamide]: the Dmax was in the range of 20 to 60% and the DC50 was < 600 nM.

`CCc1cccc2cc(O)cc(-c3ncc4c(N5CC6CCC(C5)N6)nc(OC[C@@H]5CN(CC6CN(c7cc([C@H](C(=O)N8C[C@H](O)C[C@H]8C(=O)N[C@@H](C)c8ccc(-c9scnc9C)cc8)C(C)C)on7)C6)CCN5C)nc4c3F)c12` [Compound 163, (2S,4R)-1-[(2R)-2-[3-(3-{[(3S)-3-{[(4-{3,8-diazabicyclo[3.2.1]octan-3-yl}-7-(8-ethyl-3-hydroxynaphthalen-1-yl)-8-fluoropyrido[4,3-d]pyrimidin-2-yl)oxy]methyl}-4-methylpiperazin-1-yl]methyl}azetidin-1-yl)-1,2-oxazol-5-yl]-3-methylbutanoyl]-4-hydroxy-N-[(1S)-1-[4-(4-methyl-1,3-thiazol-5-yl)phenyl]ethyl]pyrrolidine-2-carboxamide]: the maximal degradation (Dmax) was 60 to 80% and the DC50 is < 600 nM.

For the molecule `CCc1cccc2cc(O)cc(-c3ncc4c(N5CC6CCC(C5)N6)nc(OC[C@@H]5CN(CC6CN(c7cc([C@@H](C(=O)N8C[C@H](O)C[C@H]8C(=O)N[C@@H](C)c8ccc(-c9scnc9C)cc8)C(C)C)on7)C6)CCN5C)nc4c3F)c12` [Compound 164, (2S,4R)-1-[(2S)-2-[3-(3-{[(3S)-3-{[(4-{3,8-diazabicyclo[3.2.1]octan-3-yl}-7-(8-ethyl-3-hydroxynaphthalen-1-yl)-8-fluoropyrido[4,3-d]pyrimidin-2-yl)oxy]methyl}-4-methylpiperazin-1-yl]methyl}azetidin-1-yl)-1,2-oxazol-5-yl]-3-methylbutanoyl]-4-hydroxy-N-[(1S)-1-[4-(4-methyl-1,3-thiazol-5-yl)phenyl]ethyl]pyrrolidine-2-carboxamide], the maximal degradation (Dmax) is 20 to 60% and the half-maximal degradation concentration (DC50) is > 3000 nM.

For the molecule `CCc1cccc2cc(O)cc(-c3ncc4c(N5CC6CCC(C5)N6)nc(N5CC(N6CCC(CC7CN(c8cc([C@H](C(=O)N9C[C@H](O)C[C@H]9C(=O)N[C@@H](C)c9ccc(-c%10scnc%10C)cc9)C(C)C)on8)C7)CC6)C5)nc4c3F)c12` [Compound 165], the Dmax fell in the range of 20 to 60% and the DC50 is < 600 nM.

In the case of `CCc1cccc2cc(O)cc(-c3ncc4c(N5CC6CCC(C5)N6)nc(OC5CCN(CC6CCN(c7cc([C@H](C(=O)N8C[C@H](O)C[C@H]8C(=O)N[C@@H](C)c8ccc(-c9scnc9C)cc8)C(C)C)on7)CC6)CC5)nc4c3F)c12` [Compound 166, (2S,4R)-1-[(2R)-2-{3-[4-({4-[(4-{3,8-diazabicyclo[3.2.1]octan-3-yl}-7-(8-ethyl-3-hydroxynaphthalen-1-yl)-8-fluoropyrido[4,3-d]pyrimidin-2-yl)oxy]piperidin-1-yl}methyl)piperidin-1-yl]-1,2-oxazol-5-yl}-3-methylbutanoyl]-4-hydroxy-N-[(1S)-1-[4-(4-methyl-1,3-thiazol-5-yl)phenyl]ethyl]pyrrolidine-2-carboxamide], the greatest degradation seen (Dmax) is 20 to 60% and the DC50 was < 600 nM.

For the molecule `CCc1cccc2cc(O)cc(-c3ncc4c(N5CC6CCC(C5)N6)nc(OC5CCN(CC6CCN(c7cc([C@@H](C(=O)N8C[C@H](O)C[C@H]8C(=O)N[C@@H](C)c8ccc(-c9scnc9C)cc8)C(C)C)on7)CC6)CC5)nc4c3F)c12` [Compound 167, (2S,4R)-1-[(2S)-2-{3-[4-({4-[(4-{3,8-diazabicyclo[3.2.1]octan-3-yl}-7-(8-ethyl-3-hydroxynaphthalen-1-yl)-8-fluoropyrido[4,3-d]pyrimidin-2-yl)oxy]piperidin-1-yl}methyl)piperidin-1-yl]-1,2-oxazol-5-yl}-3-methylbutanoyl]-4-hydroxy-N-[(1S)-1-[4-(4-methyl-1,3-thiazol-5-yl)phenyl]ethyl]pyrrolidine-2-carboxamide], the maximal degradation (Dmax) lay in the range of 20 to 60% and the DC50 was in the range of 1000 to 3000 nM.

`C#Cc1c(F)ccc2cc(O)cc(-c3ncc4c(N5CC6CCC(C5)N6)nc(OCCN5CCC(CC6CCN(c7cc([C@H](C(=O)N8C[C@H](O)C[C@H]8C(=O)N[C@@H](C)c8ccc(-c9ccnn9C)cc8)C(C)C)on7)CC6)CC5)nc4c3F)c12` [Compound 168, (2S,4R)-1-[(2R)-2-(3-{4-[(1-{2-[(4-{3,8-diazabicyclo[3.2.1]octan-3-yl}-7-(8-ethynyl-7-fluoro-3-hydroxynaphthalen-1-yl)-8-fluoropyrido[4,3-d]pyrimidin-2-yl)oxy]ethyl}piperidin-4-yl)methyl]piperidin-1-yl}-1,2-oxazol-5-yl)-3-methylbutanoyl]-4-hydroxy-N-[(1S)-1-[4-(1-methyl-1H-pyrazol-5-yl)phenyl]ethyl]pyrrolidine-2-carboxamide]: the Dmax lay in the range of 80 to 100% and the half-maximal degradation concentration (DC50) was < 600 nM.

Turning to `C#Cc1c(F)ccc2cc(O)cc(-c3ncc4c(N5CC6CCC(C5)N6)nc(OCCN5CCC(CC6CCN(c7cc([C@@H](C(=O)N8C[C@H](O)C[C@H]8C(=O)N[C@@H](C)c8ccc(-c9ccnn9C)cc8)C(C)C)on7)CC6)CC5)nc4c3F)c12` [Compound 169, (2S,4R)-1-[(2S)-2-(3-{4-[(1-{2-[(4-{3,8-diazabicyclo[3.2.1]octan-3-yl}-7-(8-ethynyl-7-fluoro-3-hydroxynaphthalen-1-yl)-8-fluoropyrido[4,3-d]pyrimidin-2-yl)oxy]ethyl}piperidin-4-yl)methyl]piperidin-1-yl}-1,2-oxazol-5-yl)-3-methylbutanoyl]-4-hydroxy-N-[(1S)-1-[4-(1-methyl-1H-pyrazol-5-yl)phenyl]ethyl]pyrrolidine-2-carboxamide], the greatest degradation seen (Dmax) fell in the range of 20 to 60% and the half-maximal degradation concentration (DC50) lay in the range of 600 to 1000 nM.

In the case of `C#Cc1c(F)ccc2cc(O)cc(-c3ncc4c(N5CC6CCC(C5)N6)nc(OCCN5CCC(CN6CCN(c7cc([C@@H](C(=O)N8C[C@H](O)C[C@H]8C(=O)N[C@@H](C)c8ccc(-c9ccnn9C)cc8)C(C)C)on7)CC6)CC5)nc4c3F)c12` [Compound 170, (2S,4R)-1-[(2S)-2-(3-{4-[(1-{2-[(4-{3,8-diazabicyclo[3.2.1]octan-3-yl}-7-(8-ethynyl-7-fluoro-3-hydroxynaphthalen-1-yl)-8-fluoropyrido[4,3-d]pyrimidin-2-yl)oxy]ethyl}piperidin-4-yl)methyl]piperazin-1-yl}-1,2-oxazol-5-yl)-3-methylbutanoyl]-4-hydroxy-N-[(1S)-1-[4-(1-methyl-1H-pyrazol-5-yl)phenyl]ethyl]pyrrolidine-2-carboxamide], the Dmax is 20 to 60% and the DC50 was 1000 to 3000 nM.
